This is an account of results in US20110144206A1, “USE OF A COX-2 INHIBITOR FOR THE TREATMENT OF A COX-2 DEPENDENT DISORDER IN A PATIENT NOT CARRYING HLA ALLELES ASSOCIATED WITH HEPATOTOXICITY” (priority 2008, published 2011).

Data set [1] can be described thus: Liver enzyme (ALT/AST) elevation rates in TARGET study. Format: in vivo, human. The protocol: Affected patients and matched controls are identified from a large 52-week international, multicenter, stratified, randomized, double-blind, double-dummy, parallel group clinical study. Most patients are administered one 400 mg dose of lumiracoxib each day. Patients are identified as affected cases based upon clinical measurements of elevated liver enzymes greater than or equal to 3 times ULN following administration of lumiracoxib. Patients are identified as control cases based upon clinical measurements of elevated liver enzymes less than 3 times ULN following administration of lumiracoxib, and control patients are matched to affected cases based upon clinical trial, country (where possible), sex, race and age (within 2 years, where possible). A total of 137 cases and 577 matched controls are used for analysis.
Kaplan-Meier incidence estimates are calculated for the DQA1*0102 carriers and non-carriers for >3xULN (FIG. 4) and >5xULN (FIG. 5) ALT/AST elevations.

For data set [2] the following is noted: cited from earlier work.
[3] abbreviates: TARGET, crude rate, whole treatment group.
Where [4] appears, read: TARGET, crude rate, whole treatment group (Hy's law cases).
Setting [5] is: TARGET, patients with DNA and excluding DQA1*0102 patients, N ~3538 estimated.

As to `CC(C)Cc1ccc(C(C)C(=O)O)cc1` (centres unmarked) [Ibuprofen], in data set [1] (setting [3]), the “ALT/AST >3x ULN” value was 35 (0.8) n (%), the “ALT/AST >5x ULN” value is recorded as 13 (0.3) n (%) and the “ALT/AST >8x ULN” value is on record as 4 (0.1) n (%). The “ALT/AST >3x ULN + bilirubin ≧2xULN” value in data set [1] (setting [4]) is on record as 2 (0.05) n (%). In data set [1] (TARGET, per treatment arm), the “Hy's law cases” value is given as 2 cases.

Consider `Cc1ccc(Nc2c(F)cccc2Cl)c(CC(=O)O)c1` [Lumiracoxib, 2-[(2-chloro-6-fluorophenyl)amino]-5-methyl-benzeneacetic acid], for which the “Kaplan-Meier incidence estimates of >3xULN and >5xULN ALT/AST elevations” value in data set [1] (DQA1*0102 carriers) is on record as “dramatic increase in the incidence after week 13”; in data set [1] (DQA1*0102 non-carriers) it was “do not show a sharp increase after week 13”. The “Hy's law cases” value was “no cases” in data set [1] (TARGET, DQA1*0102-negative patients in the lumiracoxib arm) and “Nine” in data set [1] (TARGET, per treatment arm). Besides, the entries for the “ALT/AST >3x ULN” value in data set [1] (setting [3]) and in data set [1] (setting [5]) were 236 (2.6) n (%) and 36 (1.0) n (%), respectively. The “ALT/AST >5x ULN” value in data set [1] (setting [3]) is given as 113 (1.3) n (%); in data set [1] (setting [5]), 10 (0.3) n (%). The “ALT/AST >8x ULN” value is given as 56 (0.62) n (%) in data set [1] (setting [3]) and 3 (0.1) n (%) in data set [1] (setting [5]). The “ALT/AST >3x ULN + bilirubin ≧2xULN” value in data set [1] (setting [4]) was 9 (0.10) n (%); in data set [1] (setting [5]) it was 0 (0) n (%). Further, in data set [1] (TARGET, lumiracoxib DQA1*0102-negative patients), the “ULN ALT/AST rates compared to the lumiracoxib arm” value is “reduced considerably and are comparable to the other NSAIDs”. In data set [2] (inflamed tissues), the “retention in inflamed tissues” value was “up to 24 hours”. Besides, in data set [2] (oral), the “time to maximum plasma concentrations after dosing” value was “two”. The “elimination half-life from plasma” value in data set [2] (plasma) was “four”.

Consider `COc1ccc2cc([C@H](C)C(=O)O)ccc2c1` [Naproxen], for which, in data set [1] (setting [3]), the “ALT/AST >3x ULN” value is listed as 21 (0.5) n (%), the “ALT/AST >5x ULN” value is 6 (0.1) n (%) and the “ALT/AST >8x ULN” value is listed as 3 (0.1) n (%). In addition, in data set [1] (setting [4]), the “ALT/AST >3x ULN + bilirubin ≧2xULN” value was 2 (0.04) n (%). Further, the “Hy's law cases” value in data set [1] (TARGET, per treatment arm) worked out at 2 cases.
